From patent publication US10844077B2, “Thiazolyl-containing compounds for treating proliferative diseases” (Dana-Farber Cancer Institute, Inc., priority 2014, dated 2020)
Values joined by “and” are separate entries in the source; they are usually repeats but may differ in a detail not shown here. Equal entries are not always repeated.

How the values were obtained:
Experiment in all cases: KINATIV assay
Type in all cases: cell-based
Conditions in all cases: 1 μM, 90 minutes, BCWM.1 cells
CK1g2 = CK1g2 (Homo sapiens (Human), UniProt P78368)
Outline: (§1)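 Cell lysate + ATP-biotin probe (direct labeling); bound kinases ID'd/quantitated by ACTIVX. Cpds in duplicate vs duplicate or quadruplicate controls.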

MSK1, MSK2 domain1 = test system: MSK1, MSK2 domain1
Outline: as §1

MST1 = MST1 (Homo sapiens (Human), UniProt Q13043)
Outline: as §1

ULK1 = ULK1 (Homo sapiens (Human), UniProt O75385)
Outline: as §1

MSK2 domain1 = MSK2 domain1 (Homo sapiens (Human), UniProt O75676)
Sequence of MSK2 domain1 (O75676 whole entry, the tested form may be a part): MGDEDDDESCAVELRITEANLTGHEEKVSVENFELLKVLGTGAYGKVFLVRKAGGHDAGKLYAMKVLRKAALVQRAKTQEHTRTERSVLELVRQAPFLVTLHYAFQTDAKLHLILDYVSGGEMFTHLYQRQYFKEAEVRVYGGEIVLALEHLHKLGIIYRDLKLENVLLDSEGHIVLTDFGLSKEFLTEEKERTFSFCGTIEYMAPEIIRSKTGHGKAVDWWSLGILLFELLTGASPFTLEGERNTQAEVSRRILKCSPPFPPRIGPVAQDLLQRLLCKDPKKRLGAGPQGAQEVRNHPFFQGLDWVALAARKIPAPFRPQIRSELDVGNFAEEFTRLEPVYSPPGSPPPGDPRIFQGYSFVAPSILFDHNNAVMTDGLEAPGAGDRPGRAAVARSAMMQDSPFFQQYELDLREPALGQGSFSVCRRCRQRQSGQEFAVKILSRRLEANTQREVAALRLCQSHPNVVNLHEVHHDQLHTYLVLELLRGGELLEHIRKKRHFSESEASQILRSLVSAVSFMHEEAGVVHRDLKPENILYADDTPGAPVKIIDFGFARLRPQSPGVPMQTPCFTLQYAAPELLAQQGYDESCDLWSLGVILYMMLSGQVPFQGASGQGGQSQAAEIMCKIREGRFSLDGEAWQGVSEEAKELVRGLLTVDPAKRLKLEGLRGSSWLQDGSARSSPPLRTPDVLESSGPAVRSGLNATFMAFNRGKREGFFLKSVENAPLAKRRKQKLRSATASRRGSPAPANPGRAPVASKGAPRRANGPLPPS
Outline: as §1

SRC = SRC (Homo sapiens (Human), UniProt P12931)
Outline: as §1

Wnk1, Wnk2, Wnk3 = test system: Wnk1, Wnk2, Wnk3
Outline: as §1

TLK2 = TLK2 (Homo sapiens (Human), UniProt Q86UE8)
Outline: as §1

IKKe, TBK1 = test system: IKKe, TBK1
Outline: as §1

TAO1, TAO3 = test system: TAO1, TAO3
Outline: as §1

ULK3 = ULK3 (Homo sapiens (Human), UniProt Q6PHR2)
Sequence of ULK3 (Q6PHR2 whole entry): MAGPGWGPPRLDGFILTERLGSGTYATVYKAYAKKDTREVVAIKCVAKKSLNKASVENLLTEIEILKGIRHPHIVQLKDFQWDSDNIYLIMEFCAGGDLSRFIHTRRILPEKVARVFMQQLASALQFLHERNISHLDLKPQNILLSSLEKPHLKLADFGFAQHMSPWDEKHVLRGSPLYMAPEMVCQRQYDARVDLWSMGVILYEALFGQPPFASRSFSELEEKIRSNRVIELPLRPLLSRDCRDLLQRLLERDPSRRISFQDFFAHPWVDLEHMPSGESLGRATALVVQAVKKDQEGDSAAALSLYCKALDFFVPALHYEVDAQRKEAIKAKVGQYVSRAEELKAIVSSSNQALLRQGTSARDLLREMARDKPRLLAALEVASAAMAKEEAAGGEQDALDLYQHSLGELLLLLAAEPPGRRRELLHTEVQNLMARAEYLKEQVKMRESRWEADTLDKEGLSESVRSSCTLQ
Outline: as §1

TBK1 = TBK1 (Homo sapiens (Human), UniProt Q9UHD2)
Outline: as §1

PIP4K2C = PIP4K2C (Homo sapiens (Human), UniProt Q8TBX8)
Outline: as §1

MLKL = MLKL (Homo sapiens (Human), UniProt Q8NB16)
Outline: as §1

p38b = p38b (Homo sapiens (Human), UniProt Q15759)
Outline: as §1

PIP5K3 = PIP5K3 (Homo sapiens (Human), UniProt Q9Y2I7)
Outline: as §1

KHS1 = KHS1 (Homo sapiens (Human), UniProt Q9Y4K4)
Outline: as §1

MASTL = MASTL (Homo sapiens (Human), UniProt Q96GX5)
Sequence of MASTL (Q96GX5 whole entry): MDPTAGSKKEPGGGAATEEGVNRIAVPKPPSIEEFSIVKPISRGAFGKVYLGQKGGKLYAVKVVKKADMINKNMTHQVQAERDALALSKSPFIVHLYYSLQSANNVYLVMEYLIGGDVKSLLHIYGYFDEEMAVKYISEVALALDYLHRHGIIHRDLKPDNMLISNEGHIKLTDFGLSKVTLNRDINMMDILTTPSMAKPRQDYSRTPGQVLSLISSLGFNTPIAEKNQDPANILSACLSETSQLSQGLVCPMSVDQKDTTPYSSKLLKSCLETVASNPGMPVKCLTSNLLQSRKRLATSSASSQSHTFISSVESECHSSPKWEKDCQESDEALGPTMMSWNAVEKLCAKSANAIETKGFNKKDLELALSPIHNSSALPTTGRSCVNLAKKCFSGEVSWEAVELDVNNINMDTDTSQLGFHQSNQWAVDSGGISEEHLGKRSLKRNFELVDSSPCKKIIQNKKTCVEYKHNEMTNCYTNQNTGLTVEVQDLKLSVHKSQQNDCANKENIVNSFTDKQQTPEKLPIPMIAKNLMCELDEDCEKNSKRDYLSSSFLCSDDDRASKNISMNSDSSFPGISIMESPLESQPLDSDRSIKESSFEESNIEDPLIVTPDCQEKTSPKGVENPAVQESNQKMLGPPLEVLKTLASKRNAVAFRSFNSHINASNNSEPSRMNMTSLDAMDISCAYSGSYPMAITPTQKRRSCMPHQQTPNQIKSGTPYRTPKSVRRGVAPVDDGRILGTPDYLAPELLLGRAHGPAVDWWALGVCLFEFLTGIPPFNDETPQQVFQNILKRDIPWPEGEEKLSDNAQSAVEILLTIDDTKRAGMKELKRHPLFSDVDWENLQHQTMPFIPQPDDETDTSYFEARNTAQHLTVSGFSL
Outline: as §1

PIK3CB = PIK3CB (Homo sapiens (Human), UniProt P42338)
Outline: as §1

GCN2 = GCN2 (Homo sapiens (Human), UniProt Q9P2K8)
Sequence of GCN2 (Q9P2K8 whole entry): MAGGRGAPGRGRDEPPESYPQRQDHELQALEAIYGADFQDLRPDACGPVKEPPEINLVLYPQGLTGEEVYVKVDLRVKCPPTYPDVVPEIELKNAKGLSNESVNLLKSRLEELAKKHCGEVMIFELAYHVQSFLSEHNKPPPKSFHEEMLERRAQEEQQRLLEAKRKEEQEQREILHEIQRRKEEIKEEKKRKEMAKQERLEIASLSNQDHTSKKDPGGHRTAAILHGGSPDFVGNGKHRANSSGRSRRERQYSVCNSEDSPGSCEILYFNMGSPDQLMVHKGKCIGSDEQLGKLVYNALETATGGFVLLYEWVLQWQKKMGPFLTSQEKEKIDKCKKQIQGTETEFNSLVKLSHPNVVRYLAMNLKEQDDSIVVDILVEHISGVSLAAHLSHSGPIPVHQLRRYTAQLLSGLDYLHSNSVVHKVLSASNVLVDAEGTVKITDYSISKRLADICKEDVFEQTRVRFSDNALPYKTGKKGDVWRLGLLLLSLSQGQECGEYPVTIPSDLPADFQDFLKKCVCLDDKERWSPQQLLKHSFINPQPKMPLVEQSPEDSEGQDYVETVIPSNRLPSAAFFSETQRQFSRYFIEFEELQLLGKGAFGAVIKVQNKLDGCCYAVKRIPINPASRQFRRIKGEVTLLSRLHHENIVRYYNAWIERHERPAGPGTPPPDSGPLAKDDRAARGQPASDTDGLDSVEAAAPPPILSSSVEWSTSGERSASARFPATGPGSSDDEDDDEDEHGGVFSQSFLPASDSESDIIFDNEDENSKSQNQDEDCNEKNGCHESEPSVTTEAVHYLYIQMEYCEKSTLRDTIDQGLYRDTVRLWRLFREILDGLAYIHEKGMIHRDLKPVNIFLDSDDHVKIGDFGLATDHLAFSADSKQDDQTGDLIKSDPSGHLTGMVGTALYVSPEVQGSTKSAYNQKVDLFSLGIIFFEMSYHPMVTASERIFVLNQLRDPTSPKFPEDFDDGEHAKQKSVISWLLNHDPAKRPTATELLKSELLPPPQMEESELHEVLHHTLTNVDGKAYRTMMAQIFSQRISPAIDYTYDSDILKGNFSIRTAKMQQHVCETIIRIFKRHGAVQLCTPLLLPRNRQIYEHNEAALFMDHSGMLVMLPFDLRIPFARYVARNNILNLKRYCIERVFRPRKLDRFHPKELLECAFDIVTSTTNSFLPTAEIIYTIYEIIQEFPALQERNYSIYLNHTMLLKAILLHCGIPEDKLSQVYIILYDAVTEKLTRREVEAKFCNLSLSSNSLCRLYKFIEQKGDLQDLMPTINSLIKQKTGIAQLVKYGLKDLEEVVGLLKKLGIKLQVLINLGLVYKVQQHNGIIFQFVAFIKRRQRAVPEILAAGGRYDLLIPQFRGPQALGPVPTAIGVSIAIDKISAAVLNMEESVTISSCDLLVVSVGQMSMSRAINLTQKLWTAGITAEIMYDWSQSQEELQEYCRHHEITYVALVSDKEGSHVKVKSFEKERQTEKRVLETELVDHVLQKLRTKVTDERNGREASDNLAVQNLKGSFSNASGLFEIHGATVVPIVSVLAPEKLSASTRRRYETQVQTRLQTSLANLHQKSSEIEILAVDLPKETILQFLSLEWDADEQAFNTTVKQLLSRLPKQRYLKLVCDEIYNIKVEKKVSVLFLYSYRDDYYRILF
Outline: as §1

AurB = AurB (Homo sapiens (Human), UniProt Q96GD4)
Outline: as §1

RSKL1 = RSKL1 (Homo sapiens (Human), UniProt Q96S38)
Outline: as §1

TAO2 = TAO2 (Homo sapiens (Human), UniProt Q9UL54)
Outline: as §1

Wnk1, Wnk2, Wnk4 = test system: Wnk1, Wnk2, Wnk4
Outline: as §1

EphB1 = EphB1 (Homo sapiens (Human), UniProt P54762)
Outline: as §1

RSK1, RSK2, RSK3 domain1 = test system: RSK1, RSK2, RSK3 domain1
Outline: as §1

ITPK1 = ITPK1 (Homo sapiens (Human), UniProt Q13572)
Outline: as §1

CK1a = CK1a (Homo sapiens (Human), UniProt P48729)
Outline: as §1

MARK2 = MARK2 (Homo sapiens (Human), UniProt Q7KZI7)
Outline: as §1

IRE1 = IRE1 (Homo sapiens (Human), UniProt O75460)
Outline: as §1

MAP3K2 = MAP3K2 (Homo sapiens (Human), UniProt Q9Y2U5)
Outline: as §1

NEK2 = NEK2 (Homo sapiens (Human), UniProt P51955)
Sequence of NEK2 (P51955 whole entry): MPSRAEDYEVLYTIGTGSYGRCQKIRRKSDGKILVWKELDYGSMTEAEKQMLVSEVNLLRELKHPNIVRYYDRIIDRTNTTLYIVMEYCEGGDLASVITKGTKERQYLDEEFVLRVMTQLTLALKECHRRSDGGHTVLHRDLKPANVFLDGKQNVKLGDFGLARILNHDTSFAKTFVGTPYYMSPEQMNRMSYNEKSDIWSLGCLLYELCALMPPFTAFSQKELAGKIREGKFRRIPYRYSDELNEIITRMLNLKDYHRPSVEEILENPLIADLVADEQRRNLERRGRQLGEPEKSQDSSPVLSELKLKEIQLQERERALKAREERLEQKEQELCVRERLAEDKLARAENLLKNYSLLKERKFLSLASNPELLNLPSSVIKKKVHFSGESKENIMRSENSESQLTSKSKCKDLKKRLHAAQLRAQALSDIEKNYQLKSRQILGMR
Outline: as §1

CDK4 = CDK4 (Homo sapiens (Human), UniProt P11802)
Outline: as §1

AurA, AurB, AurC = test system: AurA, AurB, AurC
Outline: as §1

RSK4 domain1 = RSK4 domain1 (Homo sapiens (Human), UniProt Q9UK32)
Outline: as §1

MAP3K6 = MAP3K6 (Homo sapiens (Human), UniProt O95382)
Outline: as §1

Erk2 = Erk2 (Homo sapiens (Human), UniProt P28482)
Sequence of Erk2 (P28482 whole entry): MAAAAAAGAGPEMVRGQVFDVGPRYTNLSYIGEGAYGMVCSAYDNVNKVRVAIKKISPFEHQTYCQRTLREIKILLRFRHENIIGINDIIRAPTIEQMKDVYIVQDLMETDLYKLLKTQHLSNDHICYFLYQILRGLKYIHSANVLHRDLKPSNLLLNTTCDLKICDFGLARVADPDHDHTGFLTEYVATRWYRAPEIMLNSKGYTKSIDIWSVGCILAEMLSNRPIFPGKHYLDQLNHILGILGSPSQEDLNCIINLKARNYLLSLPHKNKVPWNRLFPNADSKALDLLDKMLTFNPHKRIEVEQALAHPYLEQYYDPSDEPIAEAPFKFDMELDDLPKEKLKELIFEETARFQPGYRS
Outline: as §1

MST2 = MST2 (Homo sapiens (Human), UniProt Q13188)
Outline: as §1

STLK5 = STLK5 (Homo sapiens (Human), UniProt Q7RTN6)
Sequence of STLK5 (Q7RTN6 whole entry): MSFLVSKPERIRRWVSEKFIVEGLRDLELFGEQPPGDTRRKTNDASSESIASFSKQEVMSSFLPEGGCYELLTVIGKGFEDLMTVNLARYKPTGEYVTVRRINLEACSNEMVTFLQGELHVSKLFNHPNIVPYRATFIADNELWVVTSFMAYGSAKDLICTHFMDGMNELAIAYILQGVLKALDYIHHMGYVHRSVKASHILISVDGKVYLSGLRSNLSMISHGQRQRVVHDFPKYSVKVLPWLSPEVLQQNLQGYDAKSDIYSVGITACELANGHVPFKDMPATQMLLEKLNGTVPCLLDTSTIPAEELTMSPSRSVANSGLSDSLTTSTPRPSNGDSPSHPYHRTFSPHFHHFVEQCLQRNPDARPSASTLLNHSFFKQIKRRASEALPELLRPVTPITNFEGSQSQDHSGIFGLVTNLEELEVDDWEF
Outline: as §1

BRAF = BRAF (Homo sapiens (Human), UniProt P15056)
Outline: as §1

OSR1 = OSR1 (Homo sapiens (Human), UniProt O95747)
Outline: as §1

Question: `C=CC(=O)N1CC[C@@H](Nc2nccc(Nc3ncc(C(=O)Nc4c(C)cccc4C)s3)n2)C1` [Example I-4] was tested. Which “% change of MS signal compared to control sample” value (“% change of MS signal” for short) (CK1g2) did it give?
Answer: −4.5%

Question: And the “% change of MS signal” value (MSK1, MSK2 domain1)?
Answer: −28.9%

Question: What about the “% change of MS signal” value (MST1) of the same compound?
Answer: 7.0%

Question: What about the “% change of MS signal” value (ULK1) of the same compound?
Answer: 16.2%

Question: And the “% change of MS signal” value (MSK2 domain1)?
Answer: −9.6%

Question: What about the “% change of MS signal” value (SRC) of the same compound?
Answer: >90%

Question: And the “% change of MS signal” value (Wnk1, Wnk2, Wnk3)?
Answer: 17.5%

Question: What about the “% change of MS signal” value (TLK2) of the same compound?
Answer: 8.7%

Question: What about the “% change of MS signal” value (IKKe, TBK1) of the same compound?
Answer: −38.7%

Question: And the “% change of MS signal” value (TAO1, TAO3)?
Answer: 7.6%

Question: What about the “% change of MS signal” value (ULK3) of the same compound?
Answer: 22.5% and 21.9%

Question: And the “% change of MS signal” value (TBK1)?
Answer: −34.8%

Question: And the “% change of MS signal” value (PIP4K2C)?
Answer: 71.0% and 43.0%

Question: And the “% change of MS signal” value (MLKL)?
Answer: −9.4%

Question: And the “% change of MS signal” value (p38b)?
Answer: −29.6%

Question: And the “% change of MS signal” value (PIP5K3)?
Answer: 14.5%

Question: What about the “% change of MS signal” value (KHS1) of the same compound?
Answer: −2.1%

Question: What about the “% change of MS signal” value (MASTL) of the same compound?
Answer: −2.9% and −0.3%

Question: What about the “% change of MS signal” value (PIK3CB) of the same compound?
Answer: −61.3%

Question: What about the “% change of MS signal” value (GCN2) of the same compound?
Answer: −11.0% and −5.7%

Question: And the “% change of MS signal” value (AurB)?
Answer: −10.1%

Question: What about the “% change of MS signal” value (RSKL1) of the same compound?
Answer: 10.7%

Question: What about the “% change of MS signal” value (TAO2) of the same compound?
Answer: −7.0%

Question: And the “% change of MS signal” value (Wnk1, Wnk2, Wnk4)?
Answer: −0.5%

Question: And the “% change of MS signal” value (EphB1)?
Answer: >97%

Question: And the “% change of MS signal” value (RSK1, RSK2, RSK3 domain1)?
Answer: −44.0%

Question: What about the “% change of MS signal” value (ITPK1) of the same compound?
Answer: 12.8%

Question: And the “% change of MS signal” value (CK1a)?
Answer: −41.3%

Question: And the “% change of MS signal” value (MARK2)?
Answer: 3.6%

Question: What about the “% change of MS signal” value (IRE1) of the same compound?
Answer: −44.3%

Question: And the “% change of MS signal” value (MAP3K2)?
Answer: 12.1%

Question: What about the “% change of MS signal” value (NEK2) of the same compound?
Answer: 22.3%

Question: And the “% change of MS signal” value (CDK4)?
Answer: 6.8%

Question: What about the “% change of MS signal” value (AurA, AurB, AurC) of the same compound?
Answer: 2.3%

Question: What about the “% change of MS signal” value (RSK4 domain1) of the same compound?
Answer: 3.5%

Question: And the “% change of MS signal” value (MAP3K6)?
Answer: 10.9%

Question: And the “% change of MS signal” value (Erk2)?
Answer: −3.2%

Question: What about the “% change of MS signal” value (MST2) of the same compound?
Answer: 12.3%

Question: And the “% change of MS signal” value (STLK5)?
Answer: 2.0% and −4.4%

Question: And the “% change of MS signal” value (BRAF)?
Answer: 17.8%

Question: What about the “% change of MS signal” value (OSR1) of the same compound?
Answer: 26.7%

Question: `C=CC(=O)N1CCC(Cn2ccc(Nc3ncc(C(=O)Nc4c(C)cccc4Cl)s3)n2)C1` (stereo not drawn) [II-1] was tested. Which “% change of MS signal” value (CK1g2) did it give?
Answer: −1.1%

Question: What about the “% change of MS signal” value (MSK1, MSK2 domain1) of the same compound?
Answer: −37.4%

Question: And the “% change of MS signal” value (MST1)?
Answer: 13.2%

Question: And the “% change of MS signal” value (ULK1)?
Answer: 19.7%

Question: What about the “% change of MS signal” value (MSK2 domain1) of the same compound?
Answer: −33.9%

Question: And the “% change of MS signal” value (SRC)?
Answer: >90%

Question: What about the “% change of MS signal” value (Wnk1, Wnk2, Wnk3) of the same compound?
Answer: 2.4%

Question: What about the “% change of MS signal” value (TLK2) of the same compound?
Answer: 7.3%

Question: And the “% change of MS signal” value (IKKe, TBK1)?
Answer: −27.2%

Question: And the “% change of MS signal” value (TAO1, TAO3)?
Answer: −17.2%

Question: What about the “% change of MS signal” value (ULK3) of the same compound?
Answer: 22.4% and 22.8%

Question: What about the “% change of MS signal” value (TBK1) of the same compound?
Answer: −30.2%

Question: What about the “% change of MS signal” value (MLKL) of the same compound?
Answer: −0.8%

Question: What about the “% change of MS signal” value (p38b) of the same compound?
Answer: −19.0%

Question: And the “% change of MS signal” value (PIP5K3)?
Answer: 16.3%

Question: And the “% change of MS signal” value (KHS1)?
Answer: −0.6%

Question: And the “% change of MS signal” value (MASTL)?
Answer: −16.7% and −8.2%

Question: And the “% change of MS signal” value (PIK3CB)?
Answer: −64.9%

Question: And the “% change of MS signal” value (GCN2)?
Answer: −6.2% and −4.1%

Question: What about the “% change of MS signal” value (AurB) of the same compound?
Answer: −7.2%

Question: What about the “% change of MS signal” value (RSKL1) of the same compound?
Answer: 13.7%

Question: And the “% change of MS signal” value (TAO2)?
Answer: −17.9%

Question: And the “% change of MS signal” value (Wnk1, Wnk2, Wnk4)?
Answer: −8.1%

Question: What about the “% change of MS signal” value (EphB1) of the same compound?
Answer: 91.0%

Question: And the “% change of MS signal” value (RSK1, RSK2, RSK3 domain1)?
Answer: −52.0%

Question: What about the “% change of MS signal” value (ITPK1) of the same compound?
Answer: 14.0%

Question: What about the “% change of MS signal” value (CK1a) of the same compound?
Answer: −14.4%

Question: What about the “% change of MS signal” value (MARK2) of the same compound?
Answer: 15.4%

Question: What about the “% change of MS signal” value (IRE1) of the same compound?
Answer: −29.5%

Question: And the “% change of MS signal” value (MAP3K2)?
Answer: 21.3%

Question: And the “% change of MS signal” value (NEK2)?
Answer: −6.0%

Question: What about the “% change of MS signal” value (CDK4) of the same compound?
Answer: 2.2%

Question: What about the “% change of MS signal” value (AurA, AurB, AurC) of the same compound?
Answer: −3.6%

Question: And the “% change of MS signal” value (RSK4 domain1)?
Answer: −22.4%

Question: What about the “% change of MS signal” value (MAP3K6) of the same compound?
Answer: 18.9%

Question: What about the “% change of MS signal” value (Erk2) of the same compound?
Answer: −5.8%

Question: What about the “% change of MS signal” value (MST2) of the same compound?
Answer: 14.7%

Question: What about the “% change of MS signal” value (STLK5) of the same compound?
Answer: 2.6% and 3.8%

Question: What about the “% change of MS signal” value (BRAF) of the same compound?
Answer: 6.9%

Question: And the “% change of MS signal” value (OSR1)?
Answer: 16.4%
